Assays:
[1] = target: T1, adenylosuccinate lyase (cardiac muscle) (Mus musculus, UniProt P54822); conditions: bifunctional enzyme; cited from earlier work
T1 construct: the hearts and gastrocnemius muscles were excised, weighed, and homogenized to a slurry; from tissue; host or cells: mouse heart (C57BL/6J), dialyzed 10,000×g supernatant
T1 sequence (P54822 2-484 limits assumed): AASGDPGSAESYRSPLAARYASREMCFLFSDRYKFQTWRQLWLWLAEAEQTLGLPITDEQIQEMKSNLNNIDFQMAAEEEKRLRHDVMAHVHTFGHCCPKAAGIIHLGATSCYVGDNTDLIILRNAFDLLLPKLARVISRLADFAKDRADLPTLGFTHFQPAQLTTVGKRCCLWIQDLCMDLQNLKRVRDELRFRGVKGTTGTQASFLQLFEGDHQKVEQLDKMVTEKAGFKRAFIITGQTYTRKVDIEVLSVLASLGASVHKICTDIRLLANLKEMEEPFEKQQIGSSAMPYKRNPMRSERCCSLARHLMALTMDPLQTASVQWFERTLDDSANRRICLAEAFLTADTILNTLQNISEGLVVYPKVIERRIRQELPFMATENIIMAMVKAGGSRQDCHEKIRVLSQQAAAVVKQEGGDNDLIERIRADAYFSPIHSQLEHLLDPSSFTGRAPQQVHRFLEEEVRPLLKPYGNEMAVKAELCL

postischemic myocardium = test: Nucleotide and creatine phosphate content in postischemic myocardium; assay type: in vivo, dogs
Method: (§1) Catheters were placed in the left atrium and aorta, and a snare positioned around the left anterior descending coronary artery in 15 open-chest dogs. Regional myocardial blood flow was measured and transmural tissue samples were obtained using known techniques. Blood flow measurements and tissue samples were obtained prior to and just before release of a 12-minute coronary occlusion. The chest was closed and the animals allowed to awaken. Twenty-four hours later, the animals were anesthetized, the chest opened, blood flow measured, and tissue samples obtained. No hemodynamic measurements were made on the animals.
(§2) In seven animals, 200 mM AICAriboside (Sigma Chemical Co.) was infused into the left atrial catether at either 14 μmol/min (n=2) or 37 μmol/min (n=5) beginning with coronary occlusion and continuing for 24 hours. Eight control animals were infused with an equal volume of saline over 24 hours.
Nucleotide and creatine phosphate analyses were performed by high performance liquid chromatography on acid extracts of the tissue as previously described. Nucleotide analysis is described in Example 1, and creatine phosphate analysis is described in Juengling and Kammermeier, Anal. Biochem., 102, 358-361 (1980).
(§3) All comparisons between AICAriboside and saline treated animals were done by unpaired analyses.

myocardium = test: Regional myocardial blood flow, coronary occlusion and 24 hr reperfusion; assay type: in vivo, dogs; conditions: any time point
Method: as §1, §2, §3

[2] = test system: skeletal muscle (gastrocnemius); test: Purine metabolism in skeletal muscle during and after AICAriboside infusion
cardiovascular system [3] = test system: cardiovascular system; set-up: species or system adult mongrel dogs; conditions: dog, in vivo
Method: (§4) Animal Preparation--Seven adult mongrel dogs were anesthetized intramuscularly with 40 mg of morphine sulfate and intravenously with 80 mg/kg of chloralose, an endotraceal tube was inserted, and ventilation was maintained with an Emerson volume-cycled respirator and 100% oxygen. The heart was exposed through a left lateral thoracotomy, polyvinyl chloride catheters (3-mm outer diameter) were inserted into the left atrium and into the aorta through the right femoral artery, and a Statham TTQ electromagnetic flow meter probe was positioned around the ascending aorta. The aortic pressure catheter was connected to a Statham P23 Db transducer (Statham Instruments, Inc., Oxnard, Calif.) with the zero reference at the midchest level. Aortic flow was measured with a Howell Instruments Series 1000 Flowmeter, and stroke volume and cardiac output were calculated from the aortic flow measurement. All hemodynamic data were monitored continuously throughout the course of the study. In 5 of the animals, the skin of the left dorsal hindlimb was opened and the gastrocnemius muscle was identified for subsequent tissue sampling.
After hemodynamic parameters had stabilized, regional myocardial blood flow was measured by injecting radioactively labled microspheres. Tissue samples were obtained from the left ventricle and from the left gastrocnemius muscle. A venous blood sample was also obtained. AICAriboside (100 mM) was then infused into the left atrium at 1.9 ml/min. Repeat tissue samples were taken from the left ventricle at 15, 30 and 42 min. of infusion, and tissue samples were taken from the gastrocnemius muscle at 30 min. of infusion. Venous and arterial blood samples were also obtained at 42 min. of infusion, and regional myocardial blood flow was measured at 10 and 39 min. of AICAriboside infusion. AICAriboside infusion was terminated after 42 min., and tissue samples were taken from the left ventricle at 10, 20, 30 and 60 min. postinfusion and from the left gastrocnemius muscle at 2,22 and 60 min. postinfusion. Venous blood samples were obtained at 10, 30 and 60 min. after AICAriboside infusion. In 4 of the 7 dogs, 400 mM formate was infused intravenously at the rate of 1.9 ml/min. for 42 min. prior to and during AICAriboside infusion. These same animals also received 6 mg of folinic acid as an intravenous bolus 30 min. prior to and 15 min. after initiating AICAriboside infusion.

Cardiac muscle = test: Purine metabolism in normal cardiac muscle during and after AICAriboside infusion
[4] = Serum urate concentrations after AICAriboside infusion; assay type: in vivo, adult mongrel dogs; conditions: following infusion of 8 mmol
Method: as §4, with “The aortic pressure catheter was connected to a Statham P23 Db transducer (Statham Instruments, Inc., Oxnard, Calif.) with the zero reference at the midchest level.” left out, “In 5 of the animals, the skin of the left dorsal hindlimb was opened and the gastrocnemius muscle was identified for subsequent tissue sampling.” left out
After hemodynamic parameters had stabilized, regional myocardial blood flow was measured by injecting radioactively labled microspheres. […] Venous and arterial blood samples were also obtained at 42 min. of infusion, and regional myocardial blood flow was measured at 10 and 39 min. of AICAriboside infusion. […]
Other Methods--Serum urate was determined by the enzymatic spectrophotometric method as previously described in Liddle et al., J. Lab. […]

cardiovascular system [5] = conditions: cited from earlier work; for hemodynamic effects on the cardiovascular system: purine precursors previously used to restore ATP
[6] = target: T1, adenylosuccinate lyase (cardiac muscle); test: Adenylosuccinate lyase assay, cardiac muscle enzyme; assay type: biochemical, C57BL/6J mice; conditions: pH 7.4, 25° C., 4 enzyme preparations, read-out: apparent Km of adenylosuccinate lyase for adenylosuccinate
Method: (§5) Preparation and Assay of Adenylosuccinate Lyase--Six-week-old C57BL/6J mice were killed, and the hearts and gastrocnemius muscles were excised, weighed, and homogenized to a slurry in 4 volumes of 50 mM Tris-HCl, pH 7.4 at 25° C. containing 1 mM EDTA and 1 mM β-mercaptoethanol in a TenBroeck glass homogenizer. The homogenate was centrifuged at 10,000×g for 15 min and the supernatant was dialyzed against 1,000 volumes of the extraction buffer for 2 h at 4° C. The lyase activity was partially stabilized by the addition of EDTA and β-mercaptoethanol, but some activity was lost even on storage at -70° C.
(§6) The assays were carried out at pH 7.4 were reaction mixtures that contained 50 mM Tris-HCl buffer, 1 mM EDTA, 1mM β-mercaptoethanol, 20 μM adenylosuccinate, and the enzyme extract (protein concentration, 0.13-0.20 mg/ml). The decrease in absorbance at 280 nm was measured using a Gilford recording spectrophotometer. All assays were done at 25° C. and were linear with respect to time of incubation and with the amount of protein in extract added to the assay.
(§7) These are average values for experiments with 4 separate enzyme preparations. The experimental points in the double reciprocal plots were fitted to the best line by the method of least squares with all points being weighted equally.

[7] = target: T2, adenylosuccinate lyase (skeletal muscle) (Mus musculus, UniProt P54822); test: Adenylosuccinate lyase assay, skeletal muscle enzyme; assay type: biochemical, C57BL/6J mice; conditions: pH 7.4, 25° C., 4 enzyme preparations, read-out: apparent Km of adenylosuccinate lyase for adenylosuccinate
T2 construct: the hearts and gastrocnemius muscles were excised, weighed, and homogenized to a slurry; from tissue; host or cells: mouse gastrocnemius muscle (C57BL/6J), dialyzed 10,000×g supernatant
T2 sequence (P54822 2-484 limits assumed): T1 sequence (P54822 2-484 limits assumed)
Method: as §5, §6, §7

[8] = endo, preocclusion (before infusion)
[9] = epi, preocclusion (before infusion)
[10] = before, during or after infusion, detection limit 3 nmol/g
[11] = skeletal muscle, infusion and up to 60 min thereafter
[12] = myocardial, throughout the study

In the case of `NC(=O)c1ncn([C@@H]2O[C@H](COP(=O)(O)O)[C@@H](O)[C@H]2O)c1N` [AICAR, 5-Amino-4-imidazolecarboxamide Ribotide], the “effect on both lyase activities of adenylosuccinate lyase” value [1] is listed as “inhibited by AICAR”.
For `NC(=O)c1ncn([C@@H]2O[C@H](CO)[C@@H](O)[C@H]2O)c1N` [AICAriboside, 5-amino-4-imidazolecarboxamide riboside], the “GTP content versus saline” value (postischemic myocardium; 24 hours reperfusion, epicardium and endocardium, P<0.003) was “greater in the AICAriboside group”, the “epicardial and endocardial ATP content versus saline” value (postischemic myocardium; 24 hours reperfusion, previously ischemic region, P<0.001) was “greater in the AICAriboside group” and the GTP content restoration (postischemic myocardium; 24 hours, saline 82% (epi), 78% (endo) of nonischemic) was “restored to nonischemic levels”. The “ATP content increase after reperfusion” value (postischemic myocardium; endo, 24 hours, saline group 21%) was 63%, the ADP (postischemic myocardium; [8]) was 0.92 ± 0.03 μmol/g wet wt and the AMP (postischemic myocardium; [8]) was 0.066 ± 0.007 μmol/g wet wt. For the same compound, the “CP (creatine phosphate)” value (postischemic myocardium; [8]) was 6.8 ± 0.7 μmol/g wet wt, the CTP (postischemic myocardium; [8]) was 0.055 ± 0.001 μmol/g wet wt and the IMP (postischemic myocardium; [8]) was 0.004 ± 0.001 μmol/g wet wt. The NAD (postischemic myocardium; [8]) was 0.058 ± 0.04 μmol/g wet wt, the UTP (postischemic myocardium; [8]) was 0.132 ± 0.004 μmol/g wet wt and the “ATP content increase after reperfusion” value (postischemic myocardium; epi, 24 hours, saline group 2%) was 41%. The ADP (postischemic myocardium; [9]) was 0.87 ± 0.03 μmol/g wet wt, the AMP (postischemic myocardium; [9]) was 0.064 ± 0.016 μmol/g wet wt and the “CP (creatine phosphate)” value (postischemic myocardium; [9]) was 7.7 ± 0.6 μmol/g wet wt. It also gave an IMP (postischemic myocardium; [9]) of 0.005 ± 0.002 μmol/g wet wt, an NAD (postischemic myocardium; [9]) of 0.060 ± 0.02 μmol/g wet wt and a UTP (postischemic myocardium; [9]) of 0.122 ± 0.005 μmol/g wet wt. The “ATP percentage drop during ischemia versus saline” value (postischemic myocardium; occlusion) was “comparable in both groups”, the “AMP or ADP content versus saline” value (postischemic myocardium; postischemic region) was “no detectable differences” and the “CTP content versus saline” value (postischemic myocardium; postischemic region) was “no statistically significant differences”. The “NAD+ content versus saline” value (postischemic myocardium; postischemic region) was “no statistically significant differences”, the “Total adenine nucleotide content versus saline” value (postischemic myocardium; postischemic region) was “also greater in the AICAriboside group” and the “UTP content versus saline” value (postischemic myocardium; postischemic region) was “no statistically significant differences”. For the same compound, the “regional flow versus saline group” value (myocardium) was “no differences in regional flow at any time point”, the Adenylosuccinate in biopsies [2, 10] was “not detectable” and the “AICAriboside concentration after infusion was stopped” value ([2]; skeletal muscle) was “fell rapidly in both tissues”. The IMP content rise ([2]; skeletal muscle) was 6-7 fold, the creatine phosphate content ([2]; skeletal muscle, 10.6±0.5 μmol/g at beginning) was “did not vary significantly” and the “NAD+ content” value ([2]; skeletal muscle, did not vary throughout infusion) was 0.32 ± 0.04 µmol/g. The Adenosine ([2]; skeletal muscle, during infusion) was “did not increase”, the hypoxanthine content [2, 11] was “consistently elevated” and the inosine content [2, 11] was “consistently elevated”. The Heart rate (cardiovascular system [3]) was “not significantly altered”, the “aortic systolic and diastolic pressure” value (cardiovascular system [3]) was “not significantly altered” and the cardiac output (cardiovascular system [3]) was “not significantly altered”. The “epicardial and endocardial regional blood flow” value (cardiovascular system [3]) was “not significantly altered”, the “mean AICAriboside content of cardiac muscle, greater than that of skeletal muscle” value (Cardiac muscle; 30 min of infusion) was 66% and the “uptake by myocardial cells” value (Cardiac muscle; Example 1) was “taken up rapidly by myocardial cells”. For the same compound, the Adenylosuccinate in biopsies (Cardiac muscle; [10]) was “not detectable”, the “time of AICAR peak” value (Cardiac muscle; cardiac and skeletal muscle) was “peaked minutes after AICAriboside infusion was stopped” and the IMP content increase (Cardiac muscle; cardiac muscle) was 3-4 fold. For the same compound, the “myocardial content of CTP” value (Cardiac muscle; cardiac muscle) was “no detectable change”, the adenylate energy charge (Cardiac muscle; cardiac muscle, 0.929±0.003 before infusion) was “did not vary during the course of the experiment” and the creatine phosphate content (Cardiac muscle; cardiac muscle, 6.8±0.4 μmol/g at beginning) was “did not vary significantly”. The “TAN (total adenine nucleotide)” value (Cardiac muscle; cardiac muscle, 20 min postinfusion) was 6.70 ± 0.10 μmol/g. wet weight, the Adenosine (Cardiac muscle; cardiac muscle, during infusion) was “did not increase” and the “AICAriboside concentration after infusion was stopped” value (Cardiac muscle; cardiac muscle, rate of decline greater than in skeletal) was “fell rapidly in both tissues”. The ADP change (Cardiac muscle; cardiac tissue, any time point) was “did not change significantly at any time point”, the AMP change (Cardiac muscle; cardiac tissue, any time point) was “did not change significantly at any time point” and the “ATP content (increase to)” value (Cardiac muscle; cardiac tissue, from 5.55±0.17, p<0.02) was 6.07±0.17 μmol/g , wet weight. The “accumulation of AICAriboside-TP” value (Cardiac muscle; cardiac versus skeletal muscle) was “greater in cardiac muscle”, the “NAD+ content” value (Cardiac muscle; heart, did not vary throughout infusion) was 0.64 ± 0.01 µmol/g and the hypoxanthine content (Cardiac muscle; [12]) was “only minimally increased”. The inosine content (Cardiac muscle; [12]) was “only minimally increased”, the distribution from plasma (Cardiac muscle; similar concentrations in plasma and myocardium) was “readily diffuses from plasma into the interstitial space and intracellular compartments” and the “mean serum urate concentration increase” value [4] was 3.7 fold.
For `Nc1ncnc2c1ncn2[C@@H]1O[C@H](CO)[C@@H](O)[C@H]1O` [adenosine], the “hemodynamic status of the animal” value (cardiovascular system [5]; adenosine administration) is given as “profound changes” and the “hemodynamic effects on the cardiovascular system” value (shortened to “hemodynamic effects”) (cardiovascular system [5]) is given as “deleterious hemodynamic effects”.
In the case of `O=C(O)C[C@H](Nc1ncnc2c1ncn2[C@@H]1O[C@H](COP(=O)(O)O)[C@@H](O)[C@H]1O)C(=O)O` [adenylosuccinate], the Km [6] is reported as 2.2 ± 0.3 µM and the Km [7] is reported as 4.5 ± 1.5 µM.
For `O=c1[nH]cnc2nc[nH]c12` [hypoxanthine], the “hemodynamic effects” value (cardiovascular system [5]) is listed as “deleterious hemodynamic effects”.
In the case of `OC[C@H]1O[C@@H](n2cnc3c(O)ncnc32)[C@H](O)[C@@H]1O` [inosine], the “hemodynamic effects” value (cardiovascular system [5]) is listed as “deleterious hemodynamic effects”.

— USRE34387E, “Method for restoring depleted purine nucleotide pools” (priority 1988, dated 1993)
